Each structure is given as a SMILES string.

From patent US20220281886A1, “NATRIURETIC PEPTIDE RECEPTOR A AGONISTS USEFUL FOR THE TREATMENT OF CARDIOMETABOLIC DISEASES, KIDNEY DISEASE AND DIABETES” (Merck Sharp & Dohme Corp., priority 2019, published 2022) come the findings set out here.

The assay addresses T1, hNPRA (Homo sapiens, UniProt P16066).
T1 construct: expressed in transfected cells
T1 sequence (P16066 33-1061): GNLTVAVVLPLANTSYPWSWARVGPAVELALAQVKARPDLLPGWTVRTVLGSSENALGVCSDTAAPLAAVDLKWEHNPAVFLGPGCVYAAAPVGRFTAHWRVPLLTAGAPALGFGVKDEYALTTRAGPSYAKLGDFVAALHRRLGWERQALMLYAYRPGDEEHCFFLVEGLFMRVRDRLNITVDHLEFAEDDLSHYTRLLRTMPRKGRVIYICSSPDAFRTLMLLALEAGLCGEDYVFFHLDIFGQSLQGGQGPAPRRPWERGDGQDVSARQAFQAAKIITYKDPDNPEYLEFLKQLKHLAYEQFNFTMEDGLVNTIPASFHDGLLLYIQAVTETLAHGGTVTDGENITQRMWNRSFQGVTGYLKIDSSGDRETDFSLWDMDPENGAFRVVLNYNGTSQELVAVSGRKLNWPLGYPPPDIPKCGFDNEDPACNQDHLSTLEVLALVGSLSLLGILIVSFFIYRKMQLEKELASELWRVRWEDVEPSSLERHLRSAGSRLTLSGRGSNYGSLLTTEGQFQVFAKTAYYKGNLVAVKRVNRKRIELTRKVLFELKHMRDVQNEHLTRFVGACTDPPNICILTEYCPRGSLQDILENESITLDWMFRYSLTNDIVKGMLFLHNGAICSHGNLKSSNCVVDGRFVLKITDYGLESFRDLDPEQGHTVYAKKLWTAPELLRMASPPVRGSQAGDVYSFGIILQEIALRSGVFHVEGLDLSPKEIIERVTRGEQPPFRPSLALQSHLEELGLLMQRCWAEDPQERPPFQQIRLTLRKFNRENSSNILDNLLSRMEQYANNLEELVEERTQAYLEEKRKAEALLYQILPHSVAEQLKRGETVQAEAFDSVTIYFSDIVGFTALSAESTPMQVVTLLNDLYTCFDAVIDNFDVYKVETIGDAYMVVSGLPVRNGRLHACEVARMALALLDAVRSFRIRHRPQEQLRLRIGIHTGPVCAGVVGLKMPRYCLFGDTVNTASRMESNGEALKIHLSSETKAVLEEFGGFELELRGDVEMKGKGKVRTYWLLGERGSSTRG
Briefly: NPRA Functional Cell Assay (cGMP HTRF). Particulars: Human NPRA HEK JumpIn stable cells; cGMP by HTRF after 1 hour at 37° C.; 10-point dose response. It counts as cell-based. A digest of the protocol: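 HEK JumpIn cells stably expressing human, rat or dog NPRA incubated 1 hour at 37° C with compound (10-point titration) in Opti-MEM buffer with 100 uM IBMX and 100 uM RO20. cGMP measured by HTRF against an on-plate calibration curve; EC50 from 4-parameter fit, positive control 10 nM rat-ANP (rat) or 50 nM h-ANP (human, dog).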

As to `O=C(N[C@H](CCN1CCC(O)CC1)c1ccc(N2CCOC2=O)cc1)c1ccc2nc3c(cc2c1)C[C@@H](C1(C(F)(F)F)CC1)CC3` [Example 4, (7S)-N-{(1R)-3-(4-hydroxypiperidin-1-yl)-1-[4-(2-oxo-1,3-oxazolidin-3-yl)phenyl]propyl}-7-[1-(trifluoromethyl)cyclopropyl]-5,6,7,8-tetrahydroacridine-2-carboxamide], the midpoint of the response, the EC50, lay at 2220 nM.

On to `C[Si](C)(C)[C@H]1CCc2nc3ccc(C(=O)N[C@H](CCN4CCC(O)CC4)c4ccc(N5CCOC5=O)cc4)cc3cc2C1` [Example 5, (7S)-N-{(1R)-3-(4-hydroxypiperidin-1-yl)-1-[4-(2-oxo-1,3-oxazolidin-3-yl)phenyl]propyl}-7-(trimethylsilyl)-5,6,7,8-tetrahydroacridine-2-carboxamide], for which the EC50 was found to be 1980 nM.

With `CC(C)[C@]1(F)CCc2nc3c(F)cc(C(=O)N[C@H](CCN4CCC(O)CC4)c4ccc(N5CCOC5=O)cc4)cc3cc2C1` [Example 6, (7S)-4,7-difluoro-N-{(1R)-3-(4-hydroxypiperidin-1-yl)-1-[4-(2-oxo-1,3-oxazolidin-3-yl)phenyl]propyl}-7-(1-methylethyl)-5,6,7,8-tetrahydroacridine-2-carboxamide], it took 114 nM to reach a half-maximal effect (EC50).

In turn, `CC(C)[C@]1(F)CCc2nc3c(F)c(F)c(C(=O)N[C@H](CCN4CCC(O)CC4)c4ccc(N5CCOC5=O)cc4)cc3cc2C1` [Example 7, (7S)-3,4,7-trifluoro-N-{(1R)-3-(4-hydroxypiperidin-1-yl)-1-[4-(2-oxo-1,3-oxazolidin-3-yl)phenyl]propyl}-7-(1-methylethyl)-5,6,7,8-tetrahydroacridine-2-carboxamide] returned an EC50 of 251 nM.

The molecule `Cc1cc(C(=O)N[C@H](CCN2CCC(O)CC2)c2ccc(N3CCOC3=O)cc2)cc2cc3c(nc12)CCC(C(C)(C)C)C3` (stereo partly drawn) [Example 9, 7-(tert-butyl)-N-((R)-3-(4-hydroxypiperidin-1-yl)-1-(4-(2-oxooxazolidin-3-yl)phenyl)propyl)-4-methyl-5,6,7,8-tetrahydroacridine-2-carboxamide+] yielded an EC50 of 2550 nM.

Molecule `CC(C)[C@]1(F)CCc2nc3c(F)cc(C(=O)N[C@H](CCN4CCC(O)CC4)c4ccc(-c5ccnnc5)nc4)cc3cc2C1` [Example 10, (7S)-4,7-difluoro-N-[(1R)-3-(4-hydroxypiperidin-1-yl)-1-(6-pyridazin-4-ylpyridin-3-yl)propyl]-7-(1-methylethyl)-5,6,7,8-tetrahydroacridine-2-carboxamide] came in with an EC50 of 112 nM.

The molecule `CC(C)[C@]1(F)CCc2nc3c(F)cc(C(=O)N[C@H](CCN4CCC(O)CC4(C)C)c4ccc(-c5ccnnc5)nc4)cc3cc2C1` (stereo partly drawn) [Example 11, (7S)-4,7-difluoro-N-[(1R)-3-(4-hydroxy-2,2-dimethylpiperidin-1-yl)-1-(6-pyridazin-4-ylpyridin-3-yl)propyl]-7-(1-methylethyl)-5,6,7,8-tetrahydroacridine-2-carboxamide] showed an EC50 of 219 nM.

`CC(C)[C@]1(F)CCc2nc3c(F)cc(C(=O)N[C@H](CCN4CCC(C)(O)CC4)c4ccc(-c5ccnnc5)nc4)cc3cc2C1` [Example 12, (7S)-4,7-difluoro-N-[(1R)-3-(4-hydroxy-4-methylpiperidin-1-yl)-1-(6-pyridazin-4-ylpyridin-3-yl)propyl]-7-(1-methylethyl)-5,6,7,8-tetrahydroacridine-2-carboxamide] returned an EC50 of 205 nM. The EC50 values of the last two molecules are within 1.5-fold of each other.

`CC(C)[C@]1(F)CCc2nc3c(F)cc(C(=O)N[C@H](CCN4CCC(O)(C(=O)O)CC4)c4ccc(-c5ccnnc5)nc4)cc3cc2C1` [Example 13, 1-[(3R)-3-({[(7S)-4,7-difluoro-7-(1-methylethyl)-5,6,7,8-tetrahydroacridin-2-yl]carbonyl}amino)-3-(6-pyridazin-4-ylpyridin-3-yl)propyl]-4-hydroxypiperidine-4-carboxylic acid] gave a half-maximal effective concentration (EC50) of 855 nM.

For `CC(C)[C@]1(F)CCc2nc3c(F)cc(C(=O)N[C@H](CCN4CC5CC(C4)C5(O)C(F)(F)F)c4ccc(-c5ccnnc5)nc4)cc3cc2C1` (stereo partly drawn) [Example 14, (7S)-4,7-difluoro-N-[(1R)-3-[6-hydroxy-6-(trifluoromethyl)-3-azabicyclo[3.1.1]hept-3-yl]-1-(6-pyridazin-4-ylpyridin-3-yl)propyl]-7-(1-methylethyl)-5,6,7,8-tetrahydroacridine-2-carboxamide], the EC50 was 2090 nM.

In the case of `CC(C)[C@]1(F)CCc2nc3c(F)cc(C(=O)N[C@H](CCN4CCC5(O)CCCCC5C4)c4ccc(-c5ccnnc5)nc4)cc3cc2C1` (stereo partly drawn) [Example 15, (7S)-4,7-difluoro-N-[(1R)-3-(4a-hydroxyoctahydroisoquinolin-2(1H)-yl)-1-(6-pyridazin-4-ylpyridin-3-yl)propyl]-7-(1-methylethyl)-5,6,7,8-tetrahydroacridine-2-carboxamide], the EC50 is 257 nM.

Turning to `CC(C)[C@]1(F)CCc2nc3c(F)cc(C(=O)N[C@H](CCN4CCC5(CCCO5)CC4)c4ccc(-c5ccnnc5)nc4)cc3cc2C1` [Example 16, (7S)-4,7-difluoro-7-(1-methylethyl)-N-[(1R)-3-(1-oxa-8-azaspiro[4.5]dec-8-yl)-1-(6-pyridazin-4-ylpyridin-3-yl)propyl]-5,6,7,8-tetrahydroacridine-2-carboxamide], the midpoint of the response, the EC50, lay at 343 nM. The EC50 values of the last two molecules are within 1.5-fold of each other.

Regarding `CC(C)[C@]1(F)CCc2nc3c(F)cc(C(=O)N[C@H](CCN4CCC5(CCO5)CC4)c4ccc(-c5ccnnc5)nc4)cc3cc2C1` [Example 17, (7S)-4,7-difluoro-7-(1-methylethyl)-N-[(1R)-3-(1-oxa-7-azaspiro[3.5]non-7-yl)-1-(6-pyridazin-4-ylpyridin-3-yl)propyl]-5,6,7,8-tetrahydroacridine-2-carboxamide], the concentration for a half-maximal effect (EC50) stood at 217 nM.

`COC1CCN(CC[C@@H](NC(=O)c2cc(F)c3nc4c(cc3c2)C[C@](F)(C(C)C)CC4)c2ccc(-c3ccnnc3)nc2)CC1` [Example 18, (7S)-4,7-difluoro-N-[(1R)-3-(4-methoxypiperidin-1-yl)-1-(6-pyridazin-4-ylpyridin-3-yl)propyl]-7-(1-methylethyl)-5,6,7,8-tetrahydroacridine-2-carboxamide]: the EC50 turned out to be 147 nM.

The molecule `CC(C)[C@]1(F)CCc2nc3c(F)cc(C(=O)N[C@H](CCN4CCC(O)(CO)CC4)c4ccc(-c5ccnnc5)nc4)cc3cc2C1` [Example 19, (7S)-4,7-difluoro-N-[(1R)-3-[4-hydroxy-4-(hydroxymethyl)piperidin-1-yl]-1-(6-pyridazin-4-ylpyridin-3-yl)propyl]-7-(1-methylethyl)-5,6,7,8-tetrahydroacridine-2-carboxamide] gave a 50% effective concentration (EC50) of 203 nM.

In the case of `CC(C)[C@]1(F)CCc2nc3c(F)cc(C(=O)N[C@H](CCN4CCC(O)CC4)c4cnc(-c5ccnnc5)c(F)c4)cc3cc2C1` [Example 20, (7S)-4,7-difluoro-N-[(1R)-1-(5-fluoro-6-pyridazin-4-ylpyridin-3-yl)-3-(4-hydroxypiperidin-1-yl)propyl]-7-(1-methylethyl)-5,6,7,8-tetrahydroacridine-2-carboxamide], the response was half-maximal at 125 nM (EC50).

In turn, `CN1CC(NC(=O)c2cccc([C@@H](CCN3CCC[C@H]3CO)NC(=O)c3ccc4nc5c(cc4c3)C[C@@H](C3(C)CC3)CC5)c2)C1` [Example 21, (S)-N-((R)-3-((S)-2-(hydroxymethyl)pyrrolidin-1-yl)-1-(3-((1-methylazetidin-3-yl)carbamoyl)phenyl)propyl)-7-(1-methylcyclopropyl)-5,6,7,8-tetrahydroacridine-2-carboxamide] returned a concentration giving a half-maximal response (EC50) of 158 nM.
